Here are results for twelve compounds from PMC4654407 (Bioorganic & medicinal chemistry letters, 2015).

By solubility is commonly meant the dissolved amount per volume that the medium holds. The IC50 is the concentration that gives 50% inhibition.

The nature of data set [1]: Solubility in sodium phosphate buffer. In kind it is physicochemical. Particulars: pH 7.4.
Data set [2] concerns the target T1, recombinant purified human sEH (Homo sapiens, UniProt P34913).
T1 sequence (P34913 1-555): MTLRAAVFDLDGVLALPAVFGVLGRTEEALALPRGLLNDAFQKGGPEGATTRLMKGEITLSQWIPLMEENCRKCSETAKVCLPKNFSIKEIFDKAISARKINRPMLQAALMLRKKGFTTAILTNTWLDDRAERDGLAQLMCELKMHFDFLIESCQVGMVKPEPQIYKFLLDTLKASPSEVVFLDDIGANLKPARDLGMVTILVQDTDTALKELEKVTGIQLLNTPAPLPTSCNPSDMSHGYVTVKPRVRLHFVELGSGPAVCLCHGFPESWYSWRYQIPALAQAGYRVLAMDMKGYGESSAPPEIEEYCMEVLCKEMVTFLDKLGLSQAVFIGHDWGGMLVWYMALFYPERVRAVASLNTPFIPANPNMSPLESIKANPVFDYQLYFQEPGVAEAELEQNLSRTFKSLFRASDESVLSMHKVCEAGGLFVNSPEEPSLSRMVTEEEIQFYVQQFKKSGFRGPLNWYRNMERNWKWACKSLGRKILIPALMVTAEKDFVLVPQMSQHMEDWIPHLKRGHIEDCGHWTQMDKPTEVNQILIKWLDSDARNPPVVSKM
Put plainly: sEH inhibition, kinetic fluorescent assay with CMNPC substrate. In kind it is biochemical.

Each structure is given as a SMILES string. Values after ≈ are worked out from the molar mass of the structure shown. Some results are limits rather than exact numbers.

`Cc1ccc(-c2cc(CNC(=O)NCC34CC5CC(CC(C5)C3)C4)no2)cc1` [3a] gave a solubility in data set [1] of 75 to 100 µM (≈ 28.5 to 38 µg/mL).

As to `COc1ccc(-c2cc(CNC(=O)NCC34CC5CC(CC(C5)C3)C4)no2)cc1` [3b], the solubility in data set [1] is 100 to 125 µM (≈ 39.6 to 49.4 µg/mL).

Turning to `O=C(NCc1cc(-c2ccco2)on1)NCC12CC3CC(CC(C3)C1)C2` [3c], the solubility in data set [1] is 75 to 100 µM (≈ 26.7 to 35.5 µg/mL).

Take `Cc1cc(CNC(=O)NCC23CC4CC(CC(C4)C2)C3)on1` [3d]: the IC50 in data set [2] turned out to be 9.9 ± 2.9 nM. In addition, the solubility in data set [1] lay within 450 to 475 µM (≈ 137 to 144 µg/mL).

In data set [1], `CC(C)c1cc(CNC(=O)NCC23CC4CC(CC(C4)C2)C3)on1` [3f] returned a solubility of 125 to 150 µM (≈ 41.4 to 49.7 µg/mL).

Turning to `O=C(NCc1cc(-c2cccc(F)c2)no1)NCC12CC3CC(CC(C3)C1)C2` [3g], the half-maximal inhibitory concentration (IC50) in data set [2] worked out at 13.7 ± 3 nM. In data set [1], this compound came in with a solubility of 75 to 100 µM (≈ 28.8 to 38.3 µg/mL).

Turning to `CC(C)c1cc(C2CCCN2C(=O)NCC23CC4CC(CC(C4)C2)C3)no1` (centres unmarked) [3k], in data set [2] (relative to 3f), the “fold less active than corresponding 1,3-disubstituted urea” value is listed as greater than 5 fold.

On to `Cc1ccc(-c2cc(CNC(=O)NC34CC5CC(C)(CC(C)(C5)C3)C4)no2)cc1` [4a], for which the IC50 in data set [2] stood at 28.8 ± 4.5 nM. Further, in data set [1], the solubility was 125 to 150 µM (≈ 49.2 to 59 µg/mL).

For `COc1ccc(-c2cc(CNC(=O)NC34CC5CC(C)(CC(C)(C5)C3)C4)no2)cc1` [4b], in data set [2], the 50% inhibitory concentration (IC50) was found to be 18 ± 2.9 nM. In data set [1], this compound had a solubility of 25 to 50 µM (≈ 10.2 to 20.5 µg/mL).

On to `CC12CC3CC(C)(C1)CC(NC(=O)NCc1cc(-c4ccco4)on1)(C3)C2` [4c], for which, in data set [2], the half-maximal inhibitory concentration (IC50) is 4.8 ± 0.6 nM. This compound had a solubility in data set [1] of 75 to 100 µM (≈ 27.7 to 36.9 µg/mL).

`Cc1cc(CNC(=O)NC23CC4CC(C)(CC(C)(C4)C2)C3)on1` [4d]: in data set [2], the IC50 was found to be 111 ± 10.3 nM. The fold less potent in data set [2] (relative to 3d) turned out to be 10 fold. Moreover, the solubility in data set [1] was 200 to 225 µM (≈ 63.5 to 71.4 µg/mL).

For the compound `CC12CC3CC(C)(C1)CC(NC(=O)NCc1cc(-c4cccc(F)c4)no1)(C3)C2` [4g], the IC50 in data set [2] is 14.2 ± 2.5 nM. For the same compound, the solubility in data set [1] was 75 to 100 µM (≈ 29.8 to 39.7 µg/mL).
